Patent US9788567B2, “Ergothioneine-containing hens egg and method of preparing hens feed for producing same” (Origin Biotechnology Kabushikikaisha, priority 2013, dated 2017)

Tests used:
[1] = in vivo
Experimental: (§1) Thus, 14 ml of the obtained concentrate solution containing the ergothioneine were mixed in 120 g of the feed for hen used generally, it were mixed with the mixing stirrer 4, and the feed for the laying hen 41 was obtained. The feed for the laying hen 41 of 120 g per a hen was continuously fed to the laying hen for 36 days, dividing into four times a day.
The feeding and raising to the laying hen, and the measure of the ergothioneine content in the egg white of the egg extracted in the meantime are performed in the following ways. Numbering was carried out to ten hens, respectively, and it stored one hen in the raising gauge, and one egg (a total of ten eggs) which each hen will lay on the 1 day was extracted, numbering was carried out to each egg, and the ergothioneine content in the egg white of each egg was measured. In a fixed amount of the ergothioneine, the chromatogram of an internal standard substance and the ergothioneine are obtained from the egg white which preliminarily added the internal standard substance of the known amount by a high performance chromatography, the amount of the ergothioneine is measured from the ratio of the peak area of the ergothioneine to that of the internal standard substance.
In the measurement of the ergothioneine content in the egg white, the feed for the hen used generally (the general feed for the hen) was fed for 5 days (minus fifth day to minus first day), the feed of the laying hen which mixed the concentrate solution containing the ergothioneine continuously was fed for 36 days (0 day to 36th day), the feed of the laying hen was stopped after that, the general feed for the hen was started, and it carried out till 71th day. […] The ergothioneine content in each egg white is measured, and the average value of the ergothioneine content in the egg white of these ten eggs is denoted by a graph.

[2] = in vivo; remark: listed apart in the source
Experimental: as §1
The feeding and raising to the laying hen, and the measurement of the ergothioneine content in the egg yolk of the egg extracted in the meantime are performed in the same way as the example 2. In a fixed amount of the ergothioneine in the measurement of the ergothioneine content in the egg yolk of each egg here, the chromatogram of an internal standard substance and the ergothioneine are obtained from the egg yolk which preliminarily added the internal standard substance of the known amount by a high performance chromatography, the amount of the ergothioneine is measured from the ratio of the peak area of the ergothioneine to that of the internal standard substance.
In FIG. 4, one egg (a total of ten eggs) which each of the ten hens will lay on the 1 day is extracted for every lapsed days which start of the feed of the general feed for the hen, start of the feed of the laying hen, start of the feed of the general feed for the hen to stop of the feed of the laying hen and continue on the 71th day. The ergothioneine content in each egg yolk is measured, and the average value of the ergothioneine content in the egg yolk of these ten eggs is denoted by a graph.

C[N+](C)(C)[C@@H](Cc1c[nH]c(=S)[nH]1)C(=O)[O-] [ergothioneine]
day on which ergothioneine content in the egg white returned to the initial value [1]: 71 days
increase of ergothioneine content in the egg white over initial value [1]: about 12.8 times
start of concentration of ergothioneine to the egg white [1]: first day
day on which ergothioneine content in the egg yolk returned to the initial value [2]: 58 days
increase of ergothioneine content in the egg yolk over initial value [2]: about 8.5 times
start of concentration of ergothioneine to the egg yolk [2]: second day
